Laboratory results as given in patent US20080317692A1, “SUICIDE SUBSTRATES OF TYROSINASE AND USE THEREOF” (SUSTINEO BIOTECHNOLOGY CO., LTD, priority 2007, published 2008).

Key:
[1] = test system: mushroom tyrosinase; assay: Irreversible inhibitory activity assay (preincubation with tyrosinase, then L-DOPA); conditions: for enzyme inactivation after preincubation: 10 μM isoflavone, after 7 min of preincubation (FIG. 4); for type of inhibition: preincubation with 3 or 10 μM isoflavone
Experimental: In irreversible inhibitory activity assays, 20 units of tyrosinase was preincubated with a 3 or 10 μM concentration of the tested isoflavone (dissolved in DMSO) in 1 mL of 50 mM phosphate buffer (pH 6.8) at 25° C. At intervals of 0, 2, 7, 12, and 30 min, 200 μL of the preincubation mixture was mixed with 800 μL of 2.5 mM L-DOPA and incubated at 25° C. for 10 min. The formation of dopachrome in each reaction was monitored with a spectrophotometer. The relative activity was calculated by dividing the absorbance at 475 nm of each reaction by that of the control reaction, in which DMSO replaced the added isoflavone. For recovery experiments, the preincubation mixture incubated for 30 min was either dialyzed twice against 200 mL of phosphate buffer at 4° C. for 1 h with stirring or centrifuged through a Sephadex G-25 spin column (Sigma). Then, the residual tyrosinase activities of the mixtures from the two treatments were assayed as described above.
Then, 800 μL of 2.5 mM L-DOPA was added, and the reaction mixture was incubated at 25° C. for 10 min. For comparison, another set of experiments was conducted by mixing immediately the tested compound, tyrosinase, and L-DOPA in 1 mL of phosphate buffer and incubated at 25° C. for 10 min. The formation of dopachrome in each reaction was monitored with a spectrophotometer. The relative activity was calculated by dividing the absorbance at 475 nm of each reaction mixture by that of the control reaction, in which DMSO replaced the tested compound. All enzymatic reactions described above were carried out at least three times independently, and the average values are presented.

[2] = target: mushroom tyrosinase; assay: Michaelis constant and maximal inactivation rate constant (method of Frere et al.); type: biochemical; conditions: for maximal inactivation rate constant ki-max / Ki: 0.03 μM tyrosinase, 2.5 mM L-DOPA as enzyme substrate, 50 to 300 μM suicide substrate (FIG. 6); for Ki: read-out: Michaelis constant KI of the inactivator
From the text: The kinetics of inhibition of 7,8,4′-trihydroxyisoflavone and 5,7,8,4′-tetrahydroxyisoflavone were studied by using the method of Frere et al. and by measuring the oxidation of L-DOPA by mushroom tyrosinase in the presence of each of the two suicide substrates. During the assay, the concentration of the tested suicide substrate was much higher than that of the enzyme. When the progress of the inactivation of the enzyme was monitored at high suicide substrate/enzyme ratios, the concentration of suicide substrate ([I]) could be considered as constant throughout the process and a pseudo-first-order rate constant (ki) could be determined by using equation 1, where ki-max and KI represent the maximal inactivation velocity and the Michaelis constant of the inactivator.
In the presence of L-DOPA, the exponential decrease in the rate of oxidation of L-DOPA gave an apparent first-order rate constant kobs, which was computed from plots of ln(vt/v0) against t, where v0 and vt are the rates of increase of absorbance at 475 nm, at zero time and at time t, respectively. Assuming a competitive interaction between the added isoflavone and L-DOPA with the enzyme, the variation of kobs with the concentrations of the isoflavone ([I]) and L-DOPA ([S]) are given by equation 2
where KS and KI are the Michaelis constants for L-DOPA and the isoflavone, respectively. When equation 2 is written as
[I]/kobs=[I]/ki-max+KI/ki-max(1+[S]/KS) (3)
it is clear that a plot of [I]/kobs against [I] will be linear and that ki-max and KI can be found from the intercept and slope.
The Michaelis constants (KI) and maximal inactivation rate constants (ki-max) of suicide substrates were determined according to the method of Frere et al. (17). The inactivation reactions were carried out in the presence of 0.03 μM mushroom tyrosinase, 2.5 mM L-DOPA, and the suicide substrate at concentrations ranging from 50 to 300 μM, and the formation of dopachrome was monitored every second for 2 min with a spectrophotometer. […] Both KI and ki-max could thus be calculated, assuming a competition between the added isoflavone and L-DOPA.

[3] = test system: mushroom tyrosinase; assay: HPLC analysis of the reaction of isoflavone with tyrosinase (substrate behaviour); type: biochemical; conditions: 100 μM isoflavone, tyrosinase 1000 units/mL, 50 mM phosphate buffer pH 6.8 (FIG. 3)
[4] = test system: mushroom tyrosinase; assay: Partition ratio of suicide substrate (method of Waley, titration of tyrosinase); type: biochemical; conditions: for molecules required to inactivate 1 molecule of the enzyme (1+r): 0.1 μM tyrosinase, preincubated 30 min at 25° C., by extrapolation (FIG. 5); for partition ratio r: from the intercept on the abscissa in FIG. 5, which is 1+r
[5] = test system: mushroom tyrosinase; assay: Enzymatic assay of tyrosinase (dopachrome formation at 475 nm, L-tyrosine or L-DOPA as substrate); type: biochemical; conditions: 0.05 mM isoflavone; for inhibition of monophenolase activity (dopachrome formation): 0.1 mM L-tyrosine as substrate (FIG. 2A); for lag time of monophenolase activity (L-tyrosine oxidation): 0.1 mM L-tyrosine, tyrosinase 100 units/mL (FIG. 2A)
Experimental: Ten microliters of the test sample (dissolved in DMSO) was mixed with 970 μL of 0.112 mM substrate (L-tyrosine or L-DOPA dissolved in 50 mM phosphate buffer, pH 6.8) at 25° C. for 2 min. […] The increase in absorbance at 475 nm due to the formation of dopachrome was monitored with a spectrophotometer.

enzyme inactivation after preincubation [1] | type of inhibition [1] | lag time of monophenolase activity (L-tyrosine oxidation) [5] | Michaelis constant KS for L-DOPA ([2]; same experimental conditions) [mM] | SMILES | maximal inactivation rate constant ki-max [2] [L·min] | Ki [2] [µM] | behaviour as substrate of tyrosinase (HPLC) [3] | molecules required to inactivate 1 molecule of the enzyme (1+r) [4] [molecules] | partition ratio r [4] | inhibition of monophenolase activity (dopachrome formation) [5]
totally inactivated | irreversible inhibitors | without the lag time | – | O=c1c(-c2ccc(O)cc2)coc2c(O)c(O)cc(O)c12 [5,7,8,4′-tetrahydroxyisoflavone] | 1.01 ± 0.04 | 7.81 ± 0.05 | acted as the substrates of mushroom tyrosinase | 36.5±3.8 | 35.5±3.8 | slowed and stopped the formation of dopachrome
– | – | – | 0.25 ± 0.01 | N[C@@H](Cc1ccc(O)c(O)c1)C(=O)O [L-DOPA, 3,4-dihydroxyphenylalanine, reference compound] | – | – | – | – | – | –
totally inactivated | irreversible inhibitors | without the lag time | – | O=c1c(-c2ccc(O)cc2)coc2c(O)c(O)ccc12 [7,8,4′-trihydroxyisoflavone] | 0.79 ± 0.08 | 18.7 ± 2.31 | acted as the substrates of mushroom tyrosinase | 82.7±5.9 | 81.7±5.9 | slowed and stopped the formation of dopachrome
